Experimental data from patent publication US5843959A, “Methods and bicyclic polyamine compositions for the treatment of inflammation” (University of Florida Research Foundation, Inc., priority 1997, dated 1998).
Values joined by “and” are separate entries in the source; they are usually repeats but may differ in a detail not shown here. Equal entries are not always repeated.

Tests used:
[1] = system: carrageenan-induced edema in rat paw; experiment: Inhibition of carrageenan-induced paw edema in rats; conditions: vs vehicle control; aspirin 150 mg/kg p.o., hydrocortisone 25 mg/kg p.o., PIP[4,4,4] 30 mg/kg i.p.; >30% significant
[2] = system: adjuvant-induced arthritis; experiment: Adjuvant-induced arthritis model in Lewis rats (Table 7); conditions: p.o. 5 days, DiPIPs 100 mg/kg, Voltaren and indomethacin 6 mg/kg; for % FINAL INHIBITION: Day 28-0
Procedure: Four groups consisting of 6 male Lewis rats weighing 150-200 g were injected subcutaneously at the base of the tail with 0.1 ml of CFA. Drugs to be assayed were administered 5 days beginning on the day of the adjuvant injection. The paw volume of the right and left rear paw of each rat were measured on the day of adjuvant injection and at regular intervals for 30 days thereafter.
The emulsion was injected subcutaneously at the base of the tail and induced the arthritic state. Measurements of paw volume were made for 30 days to monitor paw swelling. Drug treatment began on Day 0.
Four groups consisting of 10 male Lewis rats weighing 150-200 g were injected subcutaneously at the base of the tail with 0.1 ml of CFA. Drugs to be assayed were administered for 5 days beginning on the day of the adjuvant injection.

[3] = system: adjuvant-induced arthritis; conditions: for Inhibition % B (5-0): 5th day after 5 doses; for Inhibition % B (5-0) / Inhibition % A (1-0): p.o.: PIP[4,4,4] 100, hydrocortisone 30, indomethacin 5 mg/kg; for Inhibition % B (5-0) / Inhibition % A (1-0) / Inhibition % C (5-1) / Inhibition % D (14-0) / Inhibition % F (18-14) / Inhibition % E (18-0): >30% significant; for Net swelling of paw volume A (1-0), average: Day 1 - Day 0, average; for Net swelling of paw volume B (5-0), average: Day 5 - Day 0, average; for Net swelling of paw volume B (5-0): Day 5 - Day 0, individual rat; for Net swelling of paw volume C (5-1), average: Day 5 - Day 1, average; for Net swelling of paw volume C (5-1): Day 5 - Day 1, individual rat; for Polyarthritis E (ears) / Polyarthritis N (noses) / Polyarthritis P (paws) / Polyarthritis T (tails): Day 19, individual rat; for Inhibition % A (1-0): first day, after one dose; for Inhibition % C (5-1): paw volume change Day 1 to Day 5; for Net swelling of paw volume D (14-0), average / Net swelling of paw volume D (14-0) / Inhibition % D (14-0) / Inhibition % F (18-14) / Net swelling of paw volume E (18-0), average / Net swelling of paw volume E (18-0) / Net swelling of paw volume F (18-14), average / Net swelling of paw volume F (18-14) / Inhibition % E (18-0): untreated paw; for Net swelling of paw volume D (14-0), average: Day 14 - Day 0, average; for Net swelling of paw volume D (14-0): Day 14 - Day 0, individual rat; for Inhibition % D (14-0): Day 14 relative to Day 0; for Inhibition % F (18-14): Day 14 to Day 18; for Net swelling of paw volume E (18-0), average: Day 18 - Day 0, average; for Net swelling of paw volume E (18-0): Day 18 - Day 0, individual rat; for Net swelling of paw volume F (18-14), average: Day 18 - Day 14, average; for Net swelling of paw volume F (18-14): Day 18 - Day 14, individual rat; for Inhibition % E (18-0): Day 18 relative to Day 0; for Weight gain reductions (in words): vs vehicle-treated animals, 18 day study
[4] = p.o. × 5: PIP[4,4,4] 100, hydrocortisone 30, indomethacin 5 mg/kg

| Compound | % Edema inhibition [1] [%] | % FINAL INHIBITION [2] | Inhibition % B (5-0) [3] [%] | Net swelling of paw volume A (1-0), average [3, 4] [mL] | Net swelling of paw volume B (5-0), average [3, 4] [mL] | Net swelling of paw volume B (5-0) [3, 4] | Net swelling of paw volume C (5-1), average [3, 4] [mL] | Net swelling of paw volume C (5-1) [3, 4] | Polyarthritis E (ears) [3, 4] | Polyarthritis N (noses) [3, 4] | Polyarthritis P (paws) [3, 4] | Polyarthritis T (tails) [3, 4] | Inhibition % A (1-0) [3] [%] | Inhibition % C (5-1) [3, 4] [%] | Net swelling of paw volume D (14-0), average [3, 4] [mL] | Net swelling of paw volume D (14-0) [3, 4] | Inhibition % D (14-0) [3, 4] [%] | Inhibition % F (18-14) [3, 4] [%] | Net swelling of paw volume E (18-0), average [3, 4] [mL] | Net swelling of paw volume E (18-0) [3, 4] | also measured |
| --- | --- | --- | --- | --- | --- | --- | --- | --- | --- | --- | --- | --- | --- | --- | --- | --- | --- | --- | --- | --- | --- |
| CC(=O)Oc1ccccc1C(=O)O [Aspirin] | 46 |  |  |  |  |  |  |  |  |  |  |  |  |  |  |  |  |  |  |  |  |
| C(CCNC1CCNCC1)CNC1CCNCC1 [DiPIP[3,4,3], N,N'-Bis(4-piperidinyl)-1,4-butanediamine] |  | 70% and 41% |  |  |  |  |  |  |  |  |  |  |  |  |  |  |  |  |  |  |  |
| C[C@]12CCC(=O)C=C1CC[C@@H]1[C@@H]2[C@@H](O)C[C@@]2(C)[C@H]1CC[C@]2(O)C(=O)CO [Hydrocortisone] | 32 |  | 36 | 0.73 | 1.06 | 0.89 mL and 0.96 mL and 0.86 mL and 0.98 mL and 1.61 mL | 0.33 | 0.11 mL and 0.31 mL and 0.16 mL and 0.91 mL | - | - | + and - | - | 12 | 60 | 0.35 | 0.43 mL and 0.31 mL and 0.30 mL and 0.38 mL and 0.33 mL | 22 | 37 | 0.54 | 0.53 mL and 0.38 mL and 0.66 mL and 0.72 mL and 0.41 mL | Net swelling of paw volume F (18-14), average [3, 4]: 0.19 mL; Net swelling of paw volume F (18-14) [3, 4]: 0.10 mL and 0.07 mL and 0.36 mL and 0.34 mL and 0.08 mL; Inhibition % E (18-0) [3, 4]: 28%; Weight gain reductions (in words) [3]: did not affect weight gain reductions |
| COc1ccc2c(c1)c(CC(=O)O)c(C)n2C(=O)c1ccc(Cl)cc1 [Indomethacin] |  | 93% | 48 | 0.53 | 0.85 | 0.84 mL and 0.86 mL and 0.72 mL and 0.81 mL and 1.02 mL | 0.32 | 0.31 mL and 0.28 mL and 0.14 mL and 0.30 mL and 0.57 mL | - | - | - | - | 36 | 61 | 0.28 | 0.20 mL and 0.40 mL and 0.26 mL and 0.42 mL and 0.12 mL | 38 | 50 | 0.43 | 0.43 mL and 0.50 mL and 0.51 mL and 0.49 mL and 0.22 mL | FINAL DAY 28-0 (paw volume) [2]: 0.14; INITIAL DAY 14-0 (paw volume) [2]: .004; Net swelling of paw volume A (1-0) ([3]; Day 1 - Day 0, individual rat, p.o. × 5: PIP[4,4,4] 100, hydrocortisone 30, indomethacin 5 mg/kg): 0.53 mL and 0.58 mL and 0.51 mL and 0.45 mL; B.W. Gain (18-0), average ([3]; rat, in vivo): 8 g; Net swelling of paw volume F (18-14), average [3, 4]: 0.15 mL; Net swelling of paw volume F (18-14) [3, 4]: 0.23 mL and 0.10 mL and 0.25 mL and 0.07 mL; Inhibition % E (18-0) [3, 4]: 43%; Weight gain reductions (in words) [3]: did not affect weight gain reductions |
| O=C(O)Cc1ccccc1Nc1c(Cl)cccc1Cl [Voltaren] |  | 67% |  |  |  |  |  |  |  |  |  |  |  |  |  |  |  |  |  |  | FINAL DAY 28-0 (paw volume) [2]: .629; INITIAL DAY 14-0 (paw volume) [2]: .232 |
